# Several values for one entry are separate records, joined by “and”; a condition that tells them apart may be missing. Equal entries are not always repeated. Entries after “also recorded” stand apart in the source; their conditions may differ. Where two headings read alike, the source gives them in different places.
# Key:
# [1] = target: T1, CDK4-NanoLuc fusion with CCND1 in 293T or 293 cells (Homo sapiens, UniProt P11802); assay: NanoBRET Target Engagement (TE) Intracellular Kinase Assay, CDK4/CCND1; format: cell-based; conditions: NanoBRET TE intracellular kinase assay, 2-hour incubation, read-out: NanoBRET-CDK4/D1 IC50
# T1 construct: host or cells: 293T (ATCC CRL-3216) or 293 (ATCC CRL-1573)
# T1 sequence (P11802 whole entry, the tested form may be a part): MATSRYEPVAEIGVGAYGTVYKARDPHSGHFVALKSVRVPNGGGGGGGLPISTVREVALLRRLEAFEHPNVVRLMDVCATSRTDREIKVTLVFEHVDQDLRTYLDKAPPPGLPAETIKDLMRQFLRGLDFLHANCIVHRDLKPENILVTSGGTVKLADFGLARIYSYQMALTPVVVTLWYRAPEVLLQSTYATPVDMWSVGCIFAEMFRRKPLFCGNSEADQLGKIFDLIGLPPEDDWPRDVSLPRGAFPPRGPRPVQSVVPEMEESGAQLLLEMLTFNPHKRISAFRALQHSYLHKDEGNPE
# T1 sequence (P24385 whole entry partner, the tested form may be a part): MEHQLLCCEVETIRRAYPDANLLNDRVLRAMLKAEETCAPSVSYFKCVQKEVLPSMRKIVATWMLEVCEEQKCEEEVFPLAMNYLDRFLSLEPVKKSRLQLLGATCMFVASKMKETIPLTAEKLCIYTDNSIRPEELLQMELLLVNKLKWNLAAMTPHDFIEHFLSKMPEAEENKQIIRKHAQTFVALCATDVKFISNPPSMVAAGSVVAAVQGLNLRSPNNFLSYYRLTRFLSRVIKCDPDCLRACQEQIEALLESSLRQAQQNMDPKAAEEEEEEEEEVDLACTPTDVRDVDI
# [2] = system: Phospho-Rb Ser807/811 in OVCAR3 cells; assay: OVCAR3 Phospho-Rb Ser807/811 HTRF assay; format: cell-based; conditions: Homo sapiens, OVCAR-3, 1 h, read-out: pRb-OVCAR3 IC50
# Method: Cells were trypsinized and resuspended in 1 mM hydroxyurea (Sigma; H8627), 90% RPMI and 10% fetal bovine serum. […] Dose response curve normalized to DMSO control was plotted using four-parameter logistic model for IC50 calculation.
# [3] = target: T2, CDK1-NanoLuc fusion with CCNB1 in 293T or 293 cells (Homo sapiens, UniProt P06493); assay: NanoBRET Target Engagement (TE) Intracellular Kinase Assay, CDK1/CCNB1; format: cell-based; conditions: NanoBRET TE intracellular kinase assay, 2-hour incubation, read-out: NanoBRET-CDK1/B1 IC50
# T2 construct: host or cells: 293T (ATCC CRL-3216) or 293 (ATCC CRL-1573)
# T2 sequence (P06493 whole entry, the tested form may be a part): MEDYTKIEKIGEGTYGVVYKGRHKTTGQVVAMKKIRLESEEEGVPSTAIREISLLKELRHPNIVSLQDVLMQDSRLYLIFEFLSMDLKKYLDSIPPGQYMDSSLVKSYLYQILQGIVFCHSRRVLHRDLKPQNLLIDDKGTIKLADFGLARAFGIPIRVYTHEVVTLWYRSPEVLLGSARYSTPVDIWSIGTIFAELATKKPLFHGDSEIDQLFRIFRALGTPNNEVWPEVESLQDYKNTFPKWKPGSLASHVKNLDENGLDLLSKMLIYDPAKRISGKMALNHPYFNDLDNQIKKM
# T2 sequence (P14635 whole entry partner, the tested form may be a part): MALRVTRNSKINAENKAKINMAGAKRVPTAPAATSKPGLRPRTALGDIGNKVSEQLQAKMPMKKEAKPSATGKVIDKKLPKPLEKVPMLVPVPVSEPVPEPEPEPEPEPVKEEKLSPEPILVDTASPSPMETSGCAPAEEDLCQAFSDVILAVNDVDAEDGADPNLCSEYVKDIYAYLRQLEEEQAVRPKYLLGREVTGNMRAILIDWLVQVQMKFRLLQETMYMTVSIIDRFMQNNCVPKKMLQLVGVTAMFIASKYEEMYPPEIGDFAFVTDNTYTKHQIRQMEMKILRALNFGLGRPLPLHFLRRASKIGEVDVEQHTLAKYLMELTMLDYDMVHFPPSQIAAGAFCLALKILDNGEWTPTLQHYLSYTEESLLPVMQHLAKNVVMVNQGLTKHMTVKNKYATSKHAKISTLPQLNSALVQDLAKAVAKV
# Summary of the method: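 293T or 293 cells co-transfected with CDK1-NanoLuc and CCNB1 vectors, incubated 24 h, then exposed to NanoBRET Tracer K-10 plus compound for 2 h at 37° C. BRET ratio (610/450 nm) normalized to DMSO; IC50 from four-parameter logistic fit.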
# [4] = target: T3, CDK2-NanoLuc fusion with CCNE1 in 293T or 293 cells (Homo sapiens, UniProt P24941); assay: NanoBRET Target Engagement (TE) Intracellular Kinase Assay, CDK2/CCNE1; format: cell-based; conditions: 2-hour incubation
# T3 construct: host or cells: 293T (ATCC CRL-3216) or 293 (ATCC CRL-1573)
# pCDK2-CCNE1 proteins = pCDK2-CCNE1 proteins (Homo sapiens, UniProt P24941); assay: Identification of covalent binding by intact mass spectrometry, with and without competitor PF-06873600; conditions: for Observed mass value of the covalent complex between compound and CDK2 protein: intact mass spectrometry after borohydride reduction, unmodified CDK2 34096-34097 Da; for Covalent complex formation with CDK2 protein (intact mass spectra after sodium borohydride reduction) / Binding pocket by competition: complex formation in presence of molar excess PF-06873600: pCDK2-CCNE1 1 μM, compound 1.5 μM; for Covalent complex formation with CDK2 protein (intact mass spectra after sodium borohydride reduction): 1 hour at room temperature or 37° C., no competitor; for Binding pocket by competition: complex formation in presence of molar excess PF-06873600: competitor PF-06873600 20 μM
# Method: pCDK2-CCNE1 proteins (1 μM) were treated with a compound (1.5 μM) from Table 4 for 1 hour at room temperature or 37° C., with and without competitor molecule PF-06873600 (20 μM final concentration) as a specificity control. As used herein, the competitor molecule is
# As used herein, the competitor molecule is 6-(difluoromethyl)-8-((1R,2R)-2-hydroxy-2-methylcyclopentyl)-2-((1-(methylsulfonyl)piperidin-4-yl)amino)pyrido[2,3-d]pyrimidin-7(8H)-one (PF-06873600). Reversible imines were captured by reductive amination with the addition of 5 mM sodium borohydride at room temperature for 5 min. Reduction reactions were quenched by diluting the sample in equal volume of 1% trifluoroacetic acid (v/v) in acetonitrile, then analyzed by LC-MS. Deconvoluted monoisotopic intensities of unmodified and compound-modified mass peaks were compared.
# FIGS. 1A to 1P provide intact mass spectra for pCDK2-CCNE1 proteins after incubation with compounds of the present disclosure and subsequent sodium borohydride reduction. […] Further, FIGS. 1A to 1P each provide intact mass spectra following the incubation of pCDK2-CCNE1 proteins with a compound of the present disclosure both in the absence of a competitor molecule (i.e., PF-06873600, a molecule known to bind to and inhibit the function of CDK2); and in the presence of a significant stoichiometric excess of a competitor molecule PF-06873600.
# FIGS. 2A to 2N provide intact mass spectra for pCDK2-CCNE1 proteins after incubation with compounds of the present disclosure and subsequent sodium borohydride reduction.
# [5] = OVCAR3 cells, Phospho-Rb Ser807/811 HTRF, 1 hour incubation
# [6] = NanoBRET TE intracellular kinase assay, read-out: NanoBRET-CDK2/E1 IC50
Compound,IC50 [1] [nM],"IC50 [2, 5] [nM]",IC50 [3] [nM],"IC50 [4, 6] [nM]",Observed mass value of the covalent complex between compound and CDK2 protein (pCDK2-CCNE1 proteins) [Da],Covalent complex formation with CDK2 protein (intact mass spectra after sodium borohydride reduction) (pCDK2-CCNE1 proteins),Binding pocket by competition: complex formation in presence of molar excess PF-06873600 (pCDK2-CCNE1 proteins),IC50 [2] [nM],"IC50 ([4]; NanoBRET-CDK2/E1 IC50, NanoBRET TE intracellular kinase assay) [nM]","Covalent complex formation with CDK2 protein (intact mass spectra after sodium borohydride reduction) (pCDK2-CCNE1 proteins; 2,2,2-trifluoroacetate)","Observed mass value of the covalent complex between compound and CDK2 protein (pCDK2-CCNE1 proteins; 2,2,2-trifluoroacetate)"
"COc1cc(O)c(C=O)c([C@@H]2C[C@H]2C(=O)Nc2cc([C@H]3CC[C@@H](OC(=O)NC(C)C)C3)[nH]n2)c1 (mixture of isomers) [Compound 89, (1R,3S)-3-{5-[trans-2-(2-formyl-3-hydroxy-5-methoxyphenyl)cyclopropaneamido]-2H-pyrazol-3-yl}cyclopentyl N-isopropylcarbamate]",1280,44.7,11.3,2.27,34550,resulted in covalent complex formation,–,–,–,–,–
"CC(C)NC(=O)O[C@@H]1CC[C@H](c2cc(NC(=O)COc3cccc(O)c3C=O)n[nH]2)C1 [Compound 11, (1R,3S)-3-{5-[2-(2-formyl-3-hydroxyphenoxy)acetamido]-2H-pyrazol-3-yl}cyclopentyl N-isopropylcarbamate]",> 9900,102,17.3,3.72,34511,formed a covalent complex with CDK2 protein; also recorded: resulted in covalent complex formation,bound to the same binding pocket of CDK2 as the competitor molecule PF-06873600,–,–,–,–
"CC(C)NC(=O)O[C@@H]1CC[C@H](c2cc(Nc3cc(Oc4cccc(O)c4C=O)ccn3)n[nH]2)C1 [Compound 13, (1R,3S)-3-(5-{[4-(2-formyl-3-hydroxyphenoxy)pyridin-2-yl]amino}-2H-pyrazol-3-yl)cyclopentyl N-isopropylcarbamate; trifluoroacetic acid]",4700,701,92.9,12.4,34546,formed a covalent complex with CDK2 protein,bound to the same binding pocket of CDK2 as the competitor molecule PF-06873600,–,–,–,–
"CC(C)c1ccc(O[C@@H]2CC[C@H](c3cc(NC(=O)CCc4cccc(O)c4C=O)n[nH]3)C2)nn1 [Compound 14, 3-(2-formyl-3-hydroxyphenyl)-N-{5-[(1S,3R)-3-[(6-isopropylpyridazin-3-yl)oxy]cyclopentyl]-1H-pyrazol-3-yl}propanamide]",779,–,1690,138,–,resulted in covalent complex formation,–,–,–,–,–
"CC(C)NC(=O)O[C@@H]1CC[C@H](c2cc(NC(=O)Cc3cnn(-c4cccc(O)c4C=O)c3)n[nH]2)C1 [Compound 16, (1R,3S)-3-(5-{2-[1-(2-formyl-3-hydroxyphenyl)pyrazol-4-yl]acetamido}-2H-pyrazol-3-yl)cyclopentyl N-isopropylcarbamate; trifluoroacetic acid]",626,–,75.9,–,34561,formed a covalent complex with CDK2 protein,bound to the same binding pocket of CDK2 as the competitor molecule PF-06873600,585,34.3,–,–
"CC(C)NC(=O)O[C@@H]1CC[C@H](c2cc(NC(=O)c3cc(-c4cccc(O)c4C=O)nn3C)n[nH]2)C1 [Compound 17, (1R,3S)-3-{5-[5-(2-formyl-3-hydroxyphenyl)-2-methylpyrazole-3-amido]-2H-pyrazol-3-yl}cyclopentyl N-isopropylcarbamate 2,2,2-trifluoroacetate]",4580,226,16.7,4.87,34561,–,bound to the same binding pocket of CDK2 as the competitor molecule PF-06873600,–,–,formed a covalent complex with CDK2 protein; also recorded: resulted in covalent complex formation,–
"CC(C)NC(=O)O[C@@H]1CC[C@H](c2cc(NC(=O)c3cc(-c4cccc(C=O)c4O)nn3C)n[nH]2)C1 [Compound 18, (1R,3S)-3-{5-[5-(3-formyl-2-hydroxyphenyl)-2-methylpyrazole-3-amido]-2H-pyrazol-3-yl}cyclopentyl N-isopropylcarbamate trifluoroacetic acid]",1610,4640,703,11.4,–,resulted in covalent complex formation,–,–,–,–,–
"COc1cc(O)c(C=O)c(CCC(=O)Nc2cc([C@H]3CC[C@@H](OC(=O)NC(C)C)C3)[nH]n2)c1 [Compound 22, (1R,3S)-3-(3-(3-(2-formyl-3-hydroxy-5-methoxyphenyl)propanamido)-1H-pyrazol-5-yl)cyclopentyl isopropylcarbamate 2,2,2-trifluoroacetate]",3690,200,100,4.81,–,formed a covalent complex with CDK2 protein,bound to the same binding pocket of CDK2 as the competitor molecule PF-06873600,–,–,–,34538-34539 Da and 34539 Da
"CC1(NC(=O)O[C@@H]2CC[C@H](c3cc(NC(=O)CCc4cccc(O)c4C=O)n[nH]3)C2)CC1 [Compound 23, (1R,3S)-3-(3-(3-(2-formyl-3-hydroxyphenyl)propanamido)-1H-pyrazol-5-yl)cyclopentyl (1-methylcyclopropyl)carbamate trifluoroacetic acid]",969,–,125,10.9,–,resulted in covalent complex formation,–,–,–,–,–
"CC(C)NC(=O)O[C@@H]1CC[C@H](c2cc(NC(=O)[C@@H](C)Oc3cccc(O)c3C=O)n[nH]2)C1 [Compound 32, (1R,3S)-3-{5-[(2R)-2-(2-formyl-3-hydroxyphenoxy)propanamido]-2H-pyrazol-3-yl}cyclopentyl N-isopropylcarbamate]",4920,352,52,4.66,34525,formed a covalent complex with CDK2 protein,bound to the same binding pocket of CDK2 as the competitor molecule PF-06873600,–,–,–,–
"CC(C)NC(=O)O[C@@H]1CC[C@H](c2cc(NC(=O)Nc3ccc(O)c(C=O)c3)n[nH]2)C1 [Compound 33, (1R,3S)-3-(5-{[(3-formyl-4-hydroxyphenyl)carbamoyl]amino}-2H-pyrazol-3-yl)cyclopentyl N-isopropylcarbamate]",361,361,71.6,11.3,–,resulted in covalent complex formation,–,–,–,–,–

# From patent US20250289789A1, “REVERSIBLE LYSINE COVALENT MODIFIERS OF CDK2 AND USES THEREOF” (Terremoto Biosciences, Inc., priority 2023, published 2025)
